Laboratory results taken from patent US8907098B2, “Inhibitors of sphingosine kinase” (MERCK PATENT GmbH, priority 2009, dated 2014).

Biological target: modified SphK1 (Homo sapiens, UniProt Q9NYA1)
Test: SphK1 biochemical kinase assay (384-well flashplate)
Settings: IC50 ranges; 5 nM modified SphK1, 1 μM ATP, 30° C., 120 min; read-out: SphK1 Inhibition IC50
Procedure: The kinase assay is carried out as a 384-well flashplate assay.
5 nM modified SphK1, 800 nM omega-biotinyl-D-erythro-sphingosine and 1 μM ATP (with 0.3 μCi of ^33P-ATP/well) are incubated in a total volume of 50 μl (25 mM HEPES, 5 mM MgCl2, 1 mM dithiothreitol, 0.01% of Brij35, 0.1% of BSA (fatty acid-free), pH 7.4) without or with test substance (5-10 concentrations) at 30° C. for 120 min. The reaction is terminated using 25 μl of 200 mM EDTA solution, filtered off with suction at room temperature after 30 min, and the cavities are washed 3 times with 100 μl of 0.9% NaCl solution. The non-specific proportion of the kinase reaction (blank) is determined using 0.5 mM NaCl. Radioactivity is measured in topcount. IC50 values are calculated using RS1.

Sequence of modified SphK1 (Q9NYA1 whole entry): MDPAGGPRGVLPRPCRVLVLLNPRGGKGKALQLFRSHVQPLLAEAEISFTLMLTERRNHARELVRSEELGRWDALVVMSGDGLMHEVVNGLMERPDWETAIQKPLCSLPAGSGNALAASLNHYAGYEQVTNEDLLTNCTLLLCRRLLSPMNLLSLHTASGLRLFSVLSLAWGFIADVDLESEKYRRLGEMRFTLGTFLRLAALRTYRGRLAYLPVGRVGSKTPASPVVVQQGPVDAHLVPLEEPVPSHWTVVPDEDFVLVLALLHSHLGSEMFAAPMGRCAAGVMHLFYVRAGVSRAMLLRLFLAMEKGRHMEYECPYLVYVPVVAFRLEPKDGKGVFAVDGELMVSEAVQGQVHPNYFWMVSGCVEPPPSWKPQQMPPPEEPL

IC50 [nM] | Structure (SMILES)
> 1000 | CC1(C)CCC(C)(C)c2cc(-c3csc(N4CC[C@@H](NCCO)C4)n3)ccc21
100 to 1000 | CC1(C)CCCc2cc(-c3csc(N4CCC(N)CC4)n3)ccc21
100 to 1000 | CC1(C)CCCc2cc(-c3csc(N4CCNCC4)n3)ccc21 [1-[4-(5,5-Dimethyl-5,6,7,8-tetrahydronaphthalen-2-yl)thiazol-2-yl]-piperazine]
100 to 1000 | CC1(C)CCCc2cc(-c3csc(C4CCN(CCCCCO)C4)n3)ccc21 (centres unmarked)
100 to 1000 | CC1(C)CCC(C)(C)c2cc(-c3csc(N4CCC(N(CCO)CCO)CC4)n3)ccc21 [2-((2-Hydroxyethyl)-{1-[4-(5,5,8,8-tetramethyl-5,6,7,8-tetrahydronaphthalen-2-yl)thiazol-2-yl]piperidin-4-yl}amino)ethanol]
100 to 1000 | CC1(C)CCC(C)(C)c2cc(-c3csc(N4CCC(N5CCC(N)C5)CC4)n3)ccc21 (centres unmarked)
100 to 1000 | CC1(C)CCC(C)(C)c2cc(-c3csc(C4CCCN(CCO)C4)n3)ccc21 (centres unmarked)
100 to 1000 | CC1(C)CCC(C)(C)c2cc(-c3csc(N4CCC5(CCNCC5)CC4)n3)ccc21 [3-[4-(5,5,8,8-Tetramethyl-5,6,7,8-tetrahydronaphthalen-2-yl)thiazol-2-yl]-3,9-diazaspiro[5.5]undecane]
> 1000 | CC1(C)CCC(C)(C)c2cc(-c3csc(N4CCCC(CCCO)C4)n3)ccc21 (centres unmarked)
> 1000 | CC1(C)CCC(C)(C)c2cc(-c3csc(N4CCC(CCCO)CC4)n3)ccc21
100 to 1000 | CC1(C)CCC(C)(C)c2cc(-c3csc(N4CCC(N)C4)n3)ccc21 (centres unmarked) [1-[4-(5,5,8,8-Tetramethyl-5,6,7,8-tetrahydronaphthalen-2-yl)thiazol-2-yl]pyrrolidin-3-ylamine]
100 to 1000 | CC1(C)CCC(C)(C)c2cc(-c3csc(N4CCNCC4)n3)ccc21 [1-[4-(5,5,8,8-Tetramethyl-5,6,7,8-tetrahydronaphthalen-2-yl)thiazol-2-yl]piperazine]
> 1000 | CC1(C)CCC(C)(C)c2cc(-c3csc(N4CC[C@H](NCCCO)C4)n3)ccc21
100 to 1000 | CC1(C)CCC(C)(C)c2cc(-c3csc(N4CC[C@H](N)C4)n3)ccc21
100 to 1000 | CC1(C)CCCc2cc(-c3csc(C4CCNC4)n3)ccc21 (centres unmarked) [4-(5,5-Dimethyl-5,6,7,8-tetrahydronaphthalen-2-yl)-2-pyrrolidin-3-yl-thiazole]
100 to 1000 | CC1(C)CCc2cc(-c3csc(N4CCC(N)CC4)n3)ccc21 [1-[4-(1,1-Dimethylindan-5-yl)thiazol-2-yl]piperidin-4-ylamine]
100 to 1000 | CC1(C)CCC(C)(C)c2cc(-c3csc(N4CCCC(CCO)C4)n3)ccc21 (centres unmarked)
100 to 1000 | CC1(C)CCC(C)(C)c2cc(-c3csc(N4CCN(CCCCO)CC4)n3)ccc21
100 to 1000 | CC1(C)CCC(C)(C)c2cc(-c3csc(C4CCNC4)n3)ccc21 (centres unmarked) [2-Pyrrolidin-3-yl-4-(5,5,8,8-tetramethyl-5,6,7,8-tetrahydronaphthalen-2-yl)thiazole]
100 to 1000 | CC1(C)CCC(C)(C)c2cc(-c3csc(N4CCC(CCN)CC4)n3)ccc21
100 to 1000 | CC1(C)CCCc2cc(-c3csc(C4CCN(CCCCO)C4)n3)ccc21 (centres unmarked) [4-{3-[4-(5,5-Dimethyl-5,6,7,8-tetrahydronaphthalen-2-yl)thiazol-2-yl]-pyrrolidin-1-yl}butan-1-ol]
< 100 | CN(C)C1CCN(c2nc(-c3ccc4c(c3)C(C)(C)CCC4(C)C)cs2)CC1 [Dimethyl-{1-[4-(5,5,8,8-tetramethyl-5,6,7,8-tetrahydronaphthalen-2-yl)thiazol-2-yl]piperidin-4-yl}amine]
100 to 1000 | CC1(C)CCCc2cc(-c3csc(N4CCN(CCCCO)CC4)n3)ccc21
> 1000 | CC1(C)CCC(C)(C)c2cc(-c3csc(N4CCCC(C(=O)NCCCO)C4)n3)ccc21 (centres unmarked)
< 100 | CC1(C)CCC(C)(C)c2cc(-c3csc(N4CCC(NCC(O)CO)CC4)n3)ccc21 (centres unmarked)
100 to 1000 | CC1(C)CCC(C)(C)c2cc(-c3csc(N4CCN(CCCCCO)CC4)n3)ccc21
